Data: patent US6716866B2, “Aryl-benzimidazole compounds having antiinfective activity” (GeneSoft Pharmaceuticals, Inc., priority 2001, dated 2004)

test system: S. aureus ATCC 33591; test: MIC against drug-resistant bacteria, S. aureus ATCC 33591; assay type: cell-based; conditions: organism C = S. aureus ATCC 33591, methycillin resistant strain (MRSA)
Procedure: (§1) Compounds according to this invention were screened for their in vitro activities against selected species of bacteria and fungi. The minimal inhibition concentration (MIC) of these compounds was determined using the National Committee for Clinical Laboratory Standards (NCCLS) broth microdilution assay in microtiter plates, as set forth in: (1) the guidelines of the National Committee for Clinical Laboratory Standards (NCCLS) Document M7-A4 (NCCLS, 1997); (2) the guidelines of the National Committee for Clinical Laboratory Standards (NCCLS) Document M11-A4 (NCCLS, 1997); and (3) the guidelines and reference method of the National Committee for Clinical Laboratory Standards (NCCLS) Document M27-T (NCCLS, 1995). For antifungal essays, the method recommended in Murray, PR., 1995 Manual of Clinical Microbiology (ASM Press, Washington, D.C.), was employed.
(§2) Further, compounds (I) are effective against drug-resistant bacteria, as evidenced by the data in Table 2 below:
(§3) ATCC 27660 and ATCC 33591 are methycillin resistant strains of S. aureus (MRSA's). ATCC 51559 is a vancomycin resistant strain of E. faecium (VRE). ATCC 12228 is a methycillin resistant strain of S. epidermis (MRSE). ATCC 51422 is a penicillin resistant strain of S. pneumoniae.

SMILES | Minimum Inhibitoty Concentration (MIC)
Cn1cc(NC(=O)c2cc3ccccc3cn2)cc1C(=O)Nc1cc(-c2nc3ccc(C(=O)NCCN4CCC(O)CC4)cc3[nH]2)n(C)c1 [Compound I-32] | +++ (MIC ≦4)
COCn1cc(NC(=O)c2ccc3nc(-c4cc(NC(=O)c5sccc5Cl)cn4C)[nH]c3c2)cc1C(=O)NCCN1CCSCC1 [Compound I-34] | +++ (MIC ≦4)
CCN(CC)CCCNC(=O)c1ccc2nc(-c3cc(NC(=O)c4cc(NC(=O)c5cc6ccccc6cn5)cn4C)cn3C)[nH]c2c1 [Compound I-37] | +++ (MIC ≦4)

test system: S. pneumoniae ATCC 51422; test: MIC against drug-resistant bacteria, S. pneumoniae ATCC 51422; assay type: cell-based; conditions: organism E = S. pneumoniae ATCC 51422, penicillin resistant strain
Procedure: as §1, §2, §3

SMILES | Minimum Inhibitoty Concentration (MIC)
Cn1cc(NC(=O)c2cc3ccccc3cn2)cc1C(=O)Nc1cc(-c2nc3ccc(C(=O)NCCN4CCC(O)CC4)cc3[nH]2)n(C)c1 [Compound I-32] | +++ (MIC ≦4)

test system: E. faecium ATCC 51559; test: MIC against drug-resistant bacteria, E. faecium ATCC 51559; assay type: cell-based; conditions: organism A = E. faecium ATCC 51559, vancomycin resistant strain (VRE)
Procedure: as §1, §2, §3

SMILES | Minimum Inhibitoty Concentration (MIC)
CCN(CC)CCNC(=O)c1ccc2nc(-c3cc(NC(=O)c4cc(NC(=O)c5cc6ccccc6cn5)cn4C)cn3C)[nH]c2c1 [Compound I-27] | +++ (MIC ≦4)
Cn1cc(NC(=O)c2ccc3nc(-c4cc(NC(=O)c5ccc(Cl)cc5F)cn4C)[nH]c3c2)cc1C(=O)NCCN1CCCCC1 [Compound I-28] | +++ (MIC ≦4)
Cn1cc(NC(=O)c2cc3ccccc3cn2)cc1C(=O)Nc1cc(-c2nc3ccc(C(=O)NCCN4CCSCC4)cc3[nH]2)n(C)c1 [Compound I-30] | +++ (MIC ≦4)
Cn1cc(NC(=O)c2cc3ccccc3cn2)cc1C(=O)Nc1cc(-c2nc3ccc(C(=O)NCCN4CCC(O)CC4)cc3[nH]2)n(C)c1 [Compound I-32] | +++ (MIC ≦4)

test system: S. aureus ATCC 27660; test: MIC against drug-resistant bacteria, S. aureus ATCC 27660; assay type: cell-based; conditions: organism B = S. aureus ATCC 27660, methycillin resistant strain (MRSA)
Procedure: as §1, §2, §3

SMILES | Minimum Inhibitoty Concentration (MIC)
CCOC(=O)c1ccc2nc(-c3cc(NC(=O)c4cc(NC(=O)c5ccc(F)cc5NCCN5CCOCC5)cn4C)cn3C)[nH]c2c1 [Compound I-16] | + (MIC from 12 to 32, inclusive)
CCOC(=O)c1ccc2nc(-c3cc(NC(=O)c4cc(NC(=O)c5ccc(F)cc5NCCN5CCSCC5)cn4C)cn3C)[nH]c2c1 [Compound I-17] | +++ (MIC ≦4)
CCOC(=O)c1ccc2nc(-c3cc(NC(=O)c4cc(NC(=O)c5ccc(F)cc5NCCN5CCCCC5)cn4C)cn3C)[nH]c2c1 [Compound I-18] | +++ (MIC ≦4)
Cn1cc(NC(=O)c2sc3ccccc3c2Cl)cc1C(=O)Nc1cc(-c2nc3ccc(C(=O)NCCN4CCCCC4)cc3[nH]2)n(C)c1 [Compound I-24] | +++ (MIC ≦4)
CCN(CC)CCNC(=O)c1ccc2nc(-c3cc(NC(=O)c4cc(NC(=O)c5sc6ccccc6c5Cl)cn4C)cn3C)[nH]c2c1 [Compound I-25] | +++ (MIC ≦4)
CCN(CC)CCNC(=O)c1ccc2nc(-c3cc(NC(=O)c4cc(NC(=O)c5cc6ccccc6cn5)cn4C)cn3C)[nH]c2c1 [Compound I-27] | +++ (MIC ≦4)
Cn1cc(NC(=O)c2ccc3nc(-c4cc(NC(=O)c5ccc(Cl)cc5F)cn4C)[nH]c3c2)cc1C(=O)NCCN1CCCCC1 [Compound I-28] | +++ (MIC ≦4)
Cn1cc(NC(=O)c2cc3ccccc3cn2)cc1C(=O)Nc1cc(-c2nc3ccc(C(=O)NCCN4CCSCC4)cc3[nH]2)n(C)c1 [Compound I-30] | +++ (MIC ≦4)
Cn1cc(NC(=O)c2cc3ccccc3cn2)cc1C(=O)Nc1cc(-c2nc3ccc(C(=O)NCCN4CCC(O)CC4)cc3[nH]2)n(C)c1 [Compound I-32] | +++ (MIC ≦4)
CCN(CC)CCCNC(=O)c1ccc2nc(-c3cc(NC(=O)c4cc(NC(=O)c5cc6ccccc6cn5)cn4C)cn3C)[nH]c2c1 [Compound I-37] | +++ (MIC ≦4)

test system: S. epidermis ATCC 12228; test: MIC against drug-resistant bacteria, S. epidermis ATCC 12228; assay type: cell-based; conditions: organism D = S. epidermis ATCC 12228, methycillin resistant strain (MRSE)
Procedure: as §1, §2, §3

SMILES | Minimum Inhibitoty Concentration (MIC)
CCN(CC)CCNC(=O)c1ccc2nc(-c3cc(NC(=O)c4cc(NC(=O)c5cc6ccccc6cn5)cn4C)cn3C)[nH]c2c1 [Compound I-27] | +++ (MIC ≦4)
Cn1cc(NC(=O)c2ccc3nc(-c4cc(NC(=O)c5ccc(Cl)cc5F)cn4C)[nH]c3c2)cc1C(=O)NCCN1CCCCC1 [Compound I-28] | +++ (MIC ≦4)
Cn1cc(NC(=O)c2cc3ccccc3cn2)cc1C(=O)Nc1cc(-c2nc3ccc(C(=O)NCCN4CCSCC4)cc3[nH]2)n(C)c1 [Compound I-30] | +++ (MIC ≦4)
Cn1cc(NC(=O)c2cc3ccccc3cn2)cc1C(=O)Nc1cc(-c2nc3ccc(C(=O)NCCN4CCC(O)CC4)cc3[nH]2)n(C)c1 [Compound I-32] | +++ (MIC ≦4)
COCn1cc(NC(=O)c2ccc3nc(-c4cc(NC(=O)c5sccc5Cl)cn4C)[nH]c3c2)cc1C(=O)NCCN1CCSCC1 [Compound I-34] | +++ (MIC ≦4)
